# Measured values as given in patent publication US8013016B2, “Use of acetyl L-carnitine for the treatment of fibromyalgic syndrome” (Sigma-Tau Industrie Farmaceutiche Riunite S.p.A., priority 2004, dated 2011).
# Columns and labels:
# [1] = system: patients with fibromyalgic syndrome; assay: Multicentre, randomized, placebo-controlled, double-blind clinical trial: evoked pain at ACR tender points (Pressure Threshold Meter algometer); type: in vivo, human; conditions: for Mean variation compared to baseline (evoked pain at ACR tender points, algometer): N = 42
# Description: (§1) A multicentre, randomized, placebo-controlled, double-blind clinical trial was conducted, the aim of which was to evaluate the efficacy of acetyl L-carnitine in patients with fibromyalgic syndrome.
# For the evaluation of the efficacy of the compound according to the present invention evoked pain was monitored (as measured with the “Pressure Threshold Meter” algometer) in the osteoarticular regions indicated by “The American College of Rheumatology” (ACR) as being “tender points” characteristic of fibromyalgia syndrome. [WOLFE F, SMYTHE H A, YUNUS M B, et al. The American College of Rheumatology Criteria for the classification of fibromyalgia: report of the multicenter criteria committee; Arthritis Rheum 1990; 33(2): 160-172].
# The patients included in the trial were patients of either gender aged from 25 to 65 years, who matched up to the above-mentioned American College of Rheumatology diagnostic criteria for fibromyalgia syndrome.
# The diagnostic criteria for fibromyalgic syndrome had to be confirmed by the presence of all four of the following conditions: • bilateral diffuse pain in the axial skeleton; • bilateral diffuse pain in the upper limbs; • bilateral diffuse pain in the lower limbs; • pain located in 11 or more of the 18 anatomical regions listed in the map of tender points (ACR tender points) evoked with a standardised pressure manoeuvre.
# Patients with any one of the following conditions were not recruited into the trial: • presence of infections or inflammatory processes affecting the osteoarticular or tegumental apparatus; • history or presence of clinically important osteoarticular disease capable of confounding the evaluation of the study treatments (e.g. history of trauma); • previous orthopaedic surgery, spondyloarthrosis, connectivitis etc.; • clinical or laboratory evidence of dysthyroidism; • presence of systemic diseases (diabetes, kidney, cardiovascular and respiratory disease, psychiatric illness) or major pathological conditions capable of interfering with the evaluation of the study treatments; • continuous use of anti-inflammatory steroids during the last 3 months prior to the trial; • recent initiation of oestrogen-progestogen hormone replacement therapy (<1 year); • therapy with antidepressant drugs during the last 6 months prior to the trial; • therapy with non-steroidal anti-inflammatory drugs during the last 3 days prior to the trial; • therapy with analgesic drugs during the last 7 days prior to the trial; • participation in a clinical trial during the previous 6 months; • pregnant women, breastfeeding women, or women of childbearing age not adopting an adequate contraceptive method.
# Acetyl L-carnitine was administered for a period of 10 consecutive weeks at a dose of 1,500 mg/day. […]
# [2] = system: patients with fibromyalgic syndrome; assay: Same clinical trial: secondary clinical parameters assessed with visual analogue scales; type: in vivo, human; conditions: end of the treatment period (10 weeks), 1,500 mg/day; P<0.05
# Description: as §1
# Also monitored were additional secondary parameters which will be discussed later.
# Acetyl L-carnitine was administered for a period of 10 consecutive weeks at a dose of 1,500 mg/day.
# During the first two weeks it was administered at the dose of 500 mg by the intramuscular route (i.m.) and 500 mg (twice daily) by the oral route (os).
# Over the following eight weeks acetyl L-carnitine was administered orally at doses of 500 mg three times daily.
smiles,measurement,setting,value
"CC(=O)O[C@H](CC(=O)[O-])C[N+](C)(C)C [Acetyl L-carnitine, acetyl L-carnitine]",Improvement in pain evoked in the osteoarticular regions (ACR tender points) as compared to the control group,"[1]; end of therapy (10 weeks), 1,500 mg/day, vs placebo",statistically significant improvement
same,"Mean variation compared to baseline (evoked pain at ACR tender points, algometer)","[1]; visit 2 weeks, 1,500 mg/day (500 mg i.m. + 500 mg twice daily os), placebo 0.16 (0.39)",0.24 (0.64)
same,"Mean variation compared to baseline (evoked pain at ACR tender points, algometer)","[1]; visit 6 weeks, 1,500 mg/day (first 2 weeks i.m. + os, then 500 mg three times daily os), placebo 0.45 (0.57)",0.55 (0.64)
same,"Mean variation compared to baseline (evoked pain at ACR tender points, algometer)","[1]; visit 10 weeks (end of therapy), 1,500 mg/day, placebo 0.34 (0.66), P<0.05 Student's t-test",0.71 (0.71)
same,General well-being (visual analogue scale),[2],statistically significant improvements
same,Mental health (visual analogue scale),[2],statistically significant improvements
same,Physical health in general (visual analogue scale),[2],statistically significant improvements
